Laboratory results reported in publication PMC11788862 (Journal of Pharmaceutical Analysis, 2024).

Experiments:
[1] = target: NOD-like receptor protein 3 (NLRP3) (Homo sapiens, UniProt Q96P20); experiment: SPR; assay type: binding
NLRP3 = NLRP3 (Mus musculus, UniProt Q8R4B8); experiment: DARTS; assay type: cell-based
Chain of NLRP3 (Q8R4B8 whole entry): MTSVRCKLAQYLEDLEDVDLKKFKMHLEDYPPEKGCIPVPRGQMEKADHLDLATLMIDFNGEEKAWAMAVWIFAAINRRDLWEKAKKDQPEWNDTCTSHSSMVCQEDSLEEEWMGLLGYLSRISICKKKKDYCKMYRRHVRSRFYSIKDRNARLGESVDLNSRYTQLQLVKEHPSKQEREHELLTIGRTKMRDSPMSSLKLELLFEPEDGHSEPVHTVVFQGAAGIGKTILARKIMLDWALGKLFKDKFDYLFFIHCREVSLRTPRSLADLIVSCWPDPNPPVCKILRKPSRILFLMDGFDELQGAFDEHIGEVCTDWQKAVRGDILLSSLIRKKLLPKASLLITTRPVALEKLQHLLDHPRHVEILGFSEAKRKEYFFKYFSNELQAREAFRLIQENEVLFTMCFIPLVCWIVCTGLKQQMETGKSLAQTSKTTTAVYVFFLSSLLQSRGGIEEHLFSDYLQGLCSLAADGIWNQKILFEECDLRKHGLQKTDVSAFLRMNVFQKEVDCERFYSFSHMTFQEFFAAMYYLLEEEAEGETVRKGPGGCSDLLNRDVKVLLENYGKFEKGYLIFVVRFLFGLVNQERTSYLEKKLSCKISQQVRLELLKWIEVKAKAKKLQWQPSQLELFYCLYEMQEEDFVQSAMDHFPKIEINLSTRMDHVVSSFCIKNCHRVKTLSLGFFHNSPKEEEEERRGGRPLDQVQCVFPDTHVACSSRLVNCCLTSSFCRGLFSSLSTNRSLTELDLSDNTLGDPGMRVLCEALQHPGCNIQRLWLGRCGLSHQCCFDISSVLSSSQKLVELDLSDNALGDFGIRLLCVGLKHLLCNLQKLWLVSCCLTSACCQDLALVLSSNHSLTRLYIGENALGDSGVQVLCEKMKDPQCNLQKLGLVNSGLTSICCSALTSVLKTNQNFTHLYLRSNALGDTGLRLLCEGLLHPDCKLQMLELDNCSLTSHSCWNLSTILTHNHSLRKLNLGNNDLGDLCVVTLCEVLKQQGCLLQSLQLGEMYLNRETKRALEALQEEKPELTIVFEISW

Chain of NOD-like receptor protein 3 (NLRP3) (Q96P20 220-536 limits assumed): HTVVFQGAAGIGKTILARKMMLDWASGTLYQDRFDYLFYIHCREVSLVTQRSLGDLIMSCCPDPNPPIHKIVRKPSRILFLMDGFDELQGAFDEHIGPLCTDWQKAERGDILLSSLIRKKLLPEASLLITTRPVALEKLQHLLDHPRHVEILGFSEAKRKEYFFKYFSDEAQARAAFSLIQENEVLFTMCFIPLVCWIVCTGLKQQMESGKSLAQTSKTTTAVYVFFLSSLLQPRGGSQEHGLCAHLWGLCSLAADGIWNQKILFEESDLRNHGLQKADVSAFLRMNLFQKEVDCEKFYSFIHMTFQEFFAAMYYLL

- Kd [1]: 9.93 µM
Structure (SMILES): Oc1c(I)cc(Cl)c2cccnc12 [CQ, 5-chloro-7-iodo-8-hydroxyquinoline]
- DARTS (BMDM lysates, CQ 15 μM) and CETSA (BMDMs) (NLRP3): pre-incubation of CQ with BMDM cell lysates attenuated pronase-induced proteolysis of NLRP3
